In brackets after ≈: the same amount, converted by molar mass.
test system: L1210; test: Cytotoxicity against mouse L1210 cells; type: functional, cell-based

| Structure (SMILES) | IC50 [µg/mL] |
| --- | --- |
| CC(=O)[C@@H]1C[C@H]2C(C)(C)CCC[C@]2(C)[C@@]1(O)CCC1=CCOC1=O [CHAPECODERIN B] | 7.2 (≈ 21.5 µM) |
| CC(=O)CC[C@H]1C(C)(C)CCC[C@]1(C)C(=O)CCC1=CCOC1=O [CHAPECODERIN A] | > 10 |
| CC(=O)C1=C(CCC2=CCOC2=O)[C@@]2(C)CCCC(C)(C)[C@@H]2C1 [CHAPECODERIN C] | 6 (≈ 19 µM) |
